Test results published in paper PMC6009966, “A novel proton transfer salt of 2-amino-6-sulfamoylbenzothiazole and its metal complexes: the evaluation of their inhibition effects on human cytosolic carbonic anhydrases” (Journal of Enzyme Inhibition and Medicinal Chemistry, 2017).

Assays:
Format in all cases: biochemical
hCA I [1] = target: T1, hCA I (Homo sapiens, UniProt P00915); experiment: CO2 hydratase activity inhibition of hCA I (pH-stat method)
Method: (§1) Erythrocytes were purified from human blood. The blood samples were centrifuged at 1500 rpm for 20 min, and plasma was removed. Later, red cells were washed with isotonic solution (0.9% NaCl), and the erythrocytes were hemolyzed with 1.5 volumes of ice-cold water. Cell membranes were removed by centrifugation at 4 °C, 20000 rpm for 30 min. The pH of hemolysate was adjusted to 8.7 with solid TRIS (tris(hydroxymethyl)aminomethane). […] After extensive washing with a solution of 25.0 mM TRIS-HCl/22.0 mM Na2SO4 (pH 8.7), the hCA I and hCA II isoenzymes were eluted with the solution of 1.0 M NaCl/25.0 mM Na2HPO4 (pH 6.3) and 0.1 M NaCH3COO/0.5 M NaClO4 (pH 5.6), respectively. For quantitative protein determination, the Bradford method was used with bovine serum albumin as standard. Also, the purity control of the isoenzymes was performed with SDS-PAGE after the purification.
(§2) The enzyme unit (EU) is the enzyme amount that reduces the non-enzymatic reaction time by 50%. The activity of an enzyme unit was calculated by using the equation ((t0−tc)/tc), where t0 and tc are times for pH change of the non-enzymatic and enzymatic reactions, respectively.
(§3) Regression analysis graphs were drawn by plotting the percent enzyme activity versus inhibitor concentration and IC50 values were calculated.

hCA II [2] = target: T2, hCA II (Homo sapiens, UniProt P00918); experiment: CO2 hydratase activity inhibition of hCA II (pH-stat method)
Method: as §1, §2, §3

hCA I [3] = target: T1, hCA I; experiment: Esterase activity inhibition of hCA I (4-nitrophenylacetate, 348 nm)
Method: as §1
(§4) The enzymatic reaction, in a total volume of 3.0 mL, contained 1.4 mL of 0.05 M TRIS–SO4 buffer (pH 7.4), 1.0 mL of 3.0 mM 4-nitrophenylacetate, 0.5 mL H2O, and 0.1 mL enzyme solution. A reference measurement was obtained by preparing the same cuvette without enzyme solution.
as §3
(§5) Enzyme activity was also measured in the presence of the same substrate concentrations but in the absence of any inhibitor to determine the Vmax (Supplementary Figure S3).

hCA II [4] = target: T2, hCA II; experiment: Esterase activity inhibition of hCA II (4-nitrophenylacetate, 348 nm)
Method: as §1, §4, §3, §5

[5] = CO2 hydratase activity, 0 °C, veronal buffer pH 8.15, mean ± standard error, three assays
[6] = 4-nitrophenylacetate, 25 °C, TRIS-SO4 pH 7.4, mean ± standard error, three assays
[7] = determined by esterase activity measurements, Lineweaver-Burk plot, mean ± standard error, three assays

T1 sequence (P00915 whole entry): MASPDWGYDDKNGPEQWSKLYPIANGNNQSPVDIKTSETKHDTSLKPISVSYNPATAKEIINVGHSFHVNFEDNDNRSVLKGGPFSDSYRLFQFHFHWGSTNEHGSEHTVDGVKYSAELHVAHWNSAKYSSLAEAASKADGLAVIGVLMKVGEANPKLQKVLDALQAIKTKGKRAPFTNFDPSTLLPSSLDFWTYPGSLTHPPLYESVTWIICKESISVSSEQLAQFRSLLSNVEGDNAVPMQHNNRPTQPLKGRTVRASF

Compound | Inhibition of hydratase activity of hCA I (in words) (hCA I [1]) | Hydratase IC50 hCA I (hCA I [1]; [5]) | Inhibition of hydratase activity of hCA II (in words) (hCA II [2]) | Hydratase IC50 hCA II (hCA II [2]; [5]) | Inhibition of esterase activity of hCA I (in words) (hCA I [3]) | Esterase IC50 hCA I (hCA I [3]; [6]) | Ki hCA I (hCA I [3]; [7]) | Inhibition of esterase activity of hCA II (in words) (hCA II [4]) | Esterase IC50 hCA II (hCA II [4]; [6]) | Ki hCA II (hCA II [4]; [7]) | IC50 (hCA I [1]; [5]) | IC50 (hCA II [2]; [5]) | IC50 (hCA I [3]; [6]) | Ki (hCA I [3]; [7]) | IC50 (hCA II [4]; [6]) | Ki (hCA II [4]; [7]) | hCA II inhibited stronger than hCA I (esterase activity) (hCA II [4]; esterase activity, hCA II versus hCA I)
O=C(O)c1cccc(C(=O)O)n1 [Compound H2DPC, 2,6-pyridinedicarboxylic acid, reference compound] | have not inhibited | No inhibition | have not inhibited | No inhibition | have not inhibited | No inhibition | No inhibition | have not inhibited | No inhibition | No inhibition | – | – | – | – | – | – | –
NC(=S)Nc1ccc(S(N)(=O)=O)cc1 [TBS, 4-thioureidobenzenesulfonamide, reference compound] | – | – | – | – | – | – | – | – | – | – | 7.846 ± 0.005 µM | 4.334 ± 0.021 µM | 0.499 ± 0.01 µM | 0.268 ± 0.007 µM | 0.234 ± 0.006 µM | 0.114 ± 0.003 µM | –
(SMHABT)[Fe(DPC)2].4H2O [Compound 2] | – | – | – | – | – | – | – | – | – | – | 2.533 ± 0.023 µM | 1.01 ± 0.013 µM | 0.409 ± 0.021 µM | 0.192 ± 0.019 µM | 0.189 ± 0.005 µM | 0.101 ± 0.005 µM | –
(SMHABT)2[Ni(DPC)2].5H2O [Compound 4] | – | – | – | – | – | – | – | – | – | – | 0.397 ± 0.011 µM | 0.212 ± 0.006 µM | 0.136 ± 0.003 µM | 0.043 ± 0.012 µM | 0.054 ± 0.001 µM | 0.021 ± 0.004 µM | –
Nc1nc2ccc(S(N)(=O)=O)cc2s1 [SMABT, 2-amino-6-sulfamoylbenzothiazole] | – | – | – | – | – | – | – | – | – | – | 6.348 ± 0.012 µM | 3.876 ± 0.014 µM | 0.567 ± 0.008 µM | 0.306 ± 0.004 µM | 0.322 ± 0.006 µM | 0.162 ± 0.01 µM | –
Nc1nc2ccc(S(N)(=O)=O)cc2s1.O=C(O)c1cccc(C(=O)O)n1 [Compound 1, (SMHABT)^+(HDPC)^−] | – | – | – | – | – | – | – | – | – | – | 4.075 ± 0.018 µM | 1.998 ± 0.009 µM | 0.258 ± 0.017 µM | 0.149 ± 0.017 µM | 0.133 ± 0.015 µM | 0.085 ± 0.019 µM | –
(SMHABT)2[Co(DPC)2].5H2O [Compound 3] | – | – | – | – | – | – | – | – | – | – | 1.601 ± 0.008 µM | 0.703 ± 0.014 µM | 0.066 ± 0.004 µM | 0.028 ± 0.002 µM | 0.041 ± 0.003 µM | 0.013 ± 0.006 µM | 1.5 fold
